Experimental data: patent US8802635B2, “Antioxidant, anti-inflammatory, anti-radiation, metal chelating compounds and uses thereof” (Oneday—Biotech And Pharma Ltd., priority 2011, dated 2014)
Non-standard residues stand in square brackets, D forms with d. βAla = NCCC(=O)O

Key:
p38 MAP Kinase = test: Inhibition of oxidative stress (auranofin)-induced p38 phosphorylation in SH-SY5Y cells; type: cell-based, Human; conditions: auranofin 5 μM
Procedure: (§1) Human neuroblastoma SH-SY5Y cells were maintained in Dulbecco's modified Eagle's medium (DMEM, Invitrogen) supplemented with 10% fetal bovine serum (Invitrogen), 100 μg/ml streptomycin and 100 U/ml penicillin G (Gibco). Cells were plated at a density of 6.25×10^4/cm^2 and incubated for 24 hours, after which they were exposed to different treatments.
(§2) SH-SY5Y cells were plated on 96-well plates and treated with Auranofin (AuF) (5 μM) for 30 min. Then the cells were washed with PBS and treated with either one of the peptides at the indicated concentrations. Twenty-four hours later, the cells were fixed with glutaraldehyde in final concentration of 0.5% for 10 min. Cells were washed 3 times with DDW dried over night, and washed once with borate buffer (0.1M, pH 8.5). The fixed cells were stained with 200 μl of 1% methylene blue dissolved in borate buffer for 1 hour. After extensive washing and drying, the color was extracted with 200 μl of 0.1 M HCl for 1 h at 37° C. and absorbance was read in spectrophotometer at 630 nm.
(§3) Twenty to thirty micrograms of protein samples were loaded on 10-12% SDS-PAGE gels. The proteins were then transferred electrophoretically to nitrocellulose (Whatman, Germany). The blots were blocked by incubation for 1 h at room temperature (RT) in TBS-T (25 mM Tris-HCl pH 7.4, 0.9% NaCl and 0.02% Tween-20) with 4% Difco skim milk (BD, USA), and incubated over-night at 4° C. with the primary antibody: pERK1/2 (Thr 202/Tyr204), mouse mAb, (1:6,000); p-SAPK/JNK (Thr183/Tyr185), rabbit mAb; SAPK/JNK, mouse mAb; p-p38MAP Kinase (Thr180/Tyr182), rabbit mAb; cleaved caspase 3, rabbit mAb. All antibodies were from Cell Signaling Tech. USA, used at 1:1000. Purified b Catenin, mouse mAb, (1:10,000; BD Transduction Laboratories, USA) diluted in 5% BSA, 0.04% Azide in TBS-T. Proteins were detected with Anti-Mouse or Anti-Rabbit IgG-HRP linked antibody (1:10,000; Cell Signaling, Tech. USA).

anti-OVA serum IgE = test: Ovalbumin-induced hypersensitivity: serum anti-OVA IgE; type: in vivo, mice; conditions: for effect on OVA-induced elevation of anti-OVA serum IgE titer (in words) / rank order of reduction of anti-OVA serum IgE titer: 125 mg/kg i.p. on days 13, 14, 15, blood day 16
Procedure: (§4) Male BALB/c mice (6-8 weeks old) were housed under specific pathogen-free conditions and maintained on a 12-hour light/dark cycle, with food and water ad libitum. All materials and drugs were obtained from Sigma, Inc.
(§5) Mice in Groups A, B, C, and E (n=10 per group) were sensitized with intraperitoneal (i.p.) 200 μl of sterile PBS containing 100 μg ovalbumin (OVA) and 1.6 mg alum on days 0 and 7, and challenged with intraperitoneal (i.p.) 200 μl of sterile PBS containing 10 μg ovalbumin (OVA) on day 14 in order to induce an experimental model of allergic peritonitis. Mice in Group F (n=10) were injected with intraperitoneal (i.p) 200 μl sterile PBS (“sham” group, no OVA and no Alum).
(§6) Mice in Groups A, B, and C, were treated with 150 μl of sterile PBS containing peptides DY-66, DY-65 and DY-70, respectively, at a dose of 125 mg/kg on days 13, 14, and 15 via an i.p. route of administration.
(§7) Mice in Groups E and F were treated with 150 μl of sterile PBS on days 13, 14, and 15 via an i.p. route of administration. On day 14 the test articles (or PBS vehicle) were injected 30 minutes before injecting the OVA.
Blood taken on day 16 was tested for 1) serum anti-OVA IgE, 2) white blood cell count and differential (including absolute and percentage of eosinophils count). Serum was frozen at −80° C. for future optional blood tests.

[1] = test system: JNK (c-Jun N-terminal kinases); test: Inhibition of oxidative stress (auranofin)-induced JNK phosphorylation in SH-SY5Y cells; type: cell-based, Human; conditions: auranofin 5 μM
Procedure: as §1, §2, §3

[2] = Metal chelation: copper binding by mass spectra (ESI); conditions: 0.83 mM peptide, 1.66 mM CuSO4, 1 hour room temperature
Procedure: All five peptides were examined for their ability to bind copper and ferric ions. 0.83 mM of each peptide were mixed with 1.66 mM of either FeCL3 or CuSO4. The mixtures were incubated for 1 hour at room temperature and further kept at ° 4 C until analysis. Samples were analyzed by mass spectra (ESI).

[3] = test system: cellularity of the peritoneal exudates; test: Ovalbumin-induced hypersensitivity (allergic peritonitis): peritoneal cellularity; type: in vivo, mice; conditions: 125 mg/kg i.p. on days 13, 14, 15
Procedure: as §4, §5, §6, §7

[4] = test system: alanine aminotransferase (ALT) in plasma / liver necrosis; test: Concanavalin A-induced liver inflammation in C57BL/6 mice; type: in vivo
Procedure: Six groups of C57BL/6 female mice (7-8 weeks old) containing 6 mice in each group were injected i.p. with different peptide on days −3, −2, −1 at a dose of 50 mg/kg or with PBS alone. On day zero all the mice were injected i.v. with 250 μg/mouse of Con A and 45 min. later they were injected i.p. with 150 mg/kg of each peptide or PBS.
Eight hours after Con A injection mice were bled into heparinized tubes (approx. 150 ul of blood from each mouse) and the levels of alanine aminotransferase (ALT) was measured in the plasma.
One day later the mice were sacrificed and their livers were placed in 4% formalin and sent for pathological examination.
Next, peptide DY-66 was examined and compared to N-acetylcysteine (NAC), CB3 and CB4. The compounds were tested according to the procedure described above. ConA dose was 180 μg/mouse.
FIG. 8 presents the change in ALT levels (%) for each of the tested compounds compared to PBS treatment (i.e., the ratio between ALT levels in samples obtained from mice treated with a tested compound and ALT levels in samples obtained from PBS-treated mice)

HaCaT cells = test: Hydrogen peroxide-induced HaCaT keratinocyte cytotoxicity (MTT); type: cell-based; conditions: 90 μM hydrogen peroxide 30 min; MTT after 72 hours
Procedure: All five peptides were examined in this Example, and their activity was compared to the known CB3 peptide. HaCaT cells were seeded in 96-well plate at a concentration of 10×10^4 cells/ml for 24 hours. Then cells were incubated with the peptides at the indicated concentrations for 2.5 hours followed by washing with PBS and incubation with 90 μM hydrogen peroxide (without peptide) for 30 minutes. Cells were washed with PBS and incubated with culture medium containing peptide for 72 hours. Cell viability was tested by MTT. The effect of the peptides on cell viability was performed similarly without hydrogen peroxide exposure.

[5] = Con A 250 μg/mouse i.v., 8 h after Con A

Substance: N-acetyl-Cys-Lys-Met-Cys-NH2 (Ac-CKMC-NH2; cysteine pairing not given here) [DY-65]
- IC50 (p38 MAP Kinase): 36.7 µM
- effect on OVA-induced elevation of anti-OVA serum IgE titer (in words) (anti-OVA serum IgE): significantly reduced the elevation
- rank order of reduction of anti-OVA serum IgE titer (anti-OVA serum IgE): DY-65>DY-70>DY-66
- greatest reduction of the OVA-induced elevation of anti-OVA serum IgE (anti-OVA serum IgE; 125 mg/kg i.p., % of the OVA-induced elevation): ca. 60%
- IC50 [1]: 32.3 µM
- copper binding (in words) [2]: binding was observed
- effect on OVA-induced elevation of peritoneal exudate cellularity (in words) [3]: significantly reduced the elevation
- rank order of reduction of peritoneal exudate cellularity [3]: DY-65>DY-70>DY-66
- mice found dead ([4]; 24 hours post Con A 250 μg, 6 mice in each group): 1
- protection of cell viability after hydrogen peroxide exposure (in words) (HaCaT cells): slightly elevated cell viability

Substance: N-acetyl-Cys-βAla-His-Cys-NH2 (Ac-C[βAla]HC-NH2; cysteine pairing not given here) [DY-66]
- IC50 (p38 MAP Kinase): 67 µM
- effect on OVA-induced elevation of anti-OVA serum IgE titer (in words) (anti-OVA serum IgE): significantly reduced the elevation
- rank order of reduction of anti-OVA serum IgE titer (anti-OVA serum IgE): DY-65>DY-70>DY-66
- IC50 [1]: 86.9 µM
- copper binding (in words) [2]: low degree
- effect on OVA-induced elevation of peritoneal exudate cellularity (in words) [3]: significantly reduced the elevation
- rank order of reduction of peritoneal exudate cellularity [3]: DY-65>DY-70>DY-66
- necrotic area in liver, histo-pathological report (in words) ([4]; Con A 250 μg/mouse i.v.): significant (p=0.011) decrease in necrotic area
- reduction of ALT average compared to PBS-treated mice [4, 5]: 69%
- reduction of ALT median compared to PBS-treated mice [4, 5]: 75%
- reduction of ALT average compared to PBS-treated mice ([4]; ConA dose 180 μg/mouse): 71%
- reduction of ALT median compared to PBS-treated mice ([4]; ConA dose 180 μg/mouse): 89%
- protection of cell viability after hydrogen peroxide exposure (in words) (HaCaT cells): slightly elevated cell viability
